Assay results: US6743895B1, “Bone stimulating factor” (Osteopharm Inc., priority 1995, dated 2004)
Residues, ends and D or L forms follow the SMILES beside them. No end group written: not given here.

Tests used:
ovariectomized rats [1] = experiment: Full autopsy after four week administration to ovariectomized rats; type: in vivo, Sprague-Dawley rats; details: 100 μg s.c. every 24 hours for 28 days
Method: The six ovariectomized rats were injected subcutaneously with 100 μl of a 0.1% acetic acid solution containing 100 μg of the chemically synthesized peptide (SEQ ID NO:1) every 24 hours for 28 days. On day 25, a tetracycline hydrochloride solution was injected intramuscularly into each rat so as to give 24 mg per Kg of body weight, as described previously. On day 27, a second dose of tetracycline hydrochloride was injected and the rats were sacrificed on the 28th day.
Post-mortem blood was taken by cardiac puncture and serum frozen until analyzed. A full autopsy was performed on each rat.

[2] = test system: parathyroidectomized rats; experiment: Histological evaluation of selected tissues (toxicity experiments); type: in vivo, rat; details: miniosmotic pump, about 25 μg per day
Method: A miniosmotic pump (Alzet) was loaded with about 1.5 ml of the chemically synthesized peptide having an N-terminal acetyl group (SEQ ID NO:2) in 0.1% acetic acid so as to give a calculated daily delivery of about 25 μg per day. A pump was implanted under the subcutaneous fascia of the dorsal aspect of the left side of the thorax of five rats which had been parathyroldectomized seven days earlier. Five similarly parathyroldectomized rats received similar implants containing only 0.1% acetic acid. Five intact rats were also used as controls.
Histological evaluation of selected tissues of the five rats of each of the groups indicated in Table One were carried out microscopically.

ovariectomized rats [3] = experiment: Autopsy after eight week administration to ovariectomized rats; type: in vivo, rat; details: 100 μg s.c. every 24 hours for eight weeks
Method: Eight weeks after ovariectomization, five ovariectomized rats were injected subcutaneously with 100 μl of a 0.1% acetic acid solution containing 100 μg of the chemically synthesized peptide in which the N-terminal amino group was modified with an acetyl group (SEQ ID NO:2). This was done every 24 hours for eight weeks. On day 54, a tetracycline hydrochloride solution was injected intramuscularly into the right gluteus maximus of each rat so as to give 24 mg per Kg of body weight, as described previously. On day 56, a second dose of tetracycline hydrochloride was injected and the rats were sacrificed on the 57th day.
Post-mortem blood was taken by cardiac puncture and serum frozen until analyzed. An autopsy was performed on each rat.

rats = experiment: Bone mineral apposition rate in intact rats after subcutaneous injection of polypeptide, tetracycline labelling; type: in vivo, Sprague-Dawley rats
Method: Experiments were carried out on three groups of six rats weighing between 295 and 320 g. A 1 mg per ml solution of the modified peptide (SEQ ID NO:3) was prepared in 0.1% acetic acid. A 1 mg per ml solution of the normal peptide (SEQ ID NO:1) was prepared in 0.1% acetic acid. Each rat of a first of the groups had subcutaneously injected into its right thigh 0.1 ml of the modified peptide solution. Similarly, each rat of the second group was injected with 0.1 ml of the normal peptide solution. Each rat of the third group, the control group, was injected with 0.1 ml of 0.1% acetic acid solution. Immediately following these injections, each rat was injected intramuscularly with 24 mg per Kg body weight of tetracycline hydrochloride dissolved in 0.5 ml of water. A second dose of tetracycline hydrochloride was administered 48 hours later. The animals were sacrificed 24 hours after the second dose by CO2 narcosis. The lower metaphysis of the right femur was dissected out and fixed in a 10% aqueous solution of formaldehyde buffered at pH 7.2 by acetate buffer. Bone sections were prepared for measurement as described above.
Sprague-Dawley rats were used as test animals to determine bone mineral apposition rate, as described above. Male rats having weights between 280 and 380 g were subject to subcutaneous injection after one week of acclimatization. Each animal was injected with 200 μl of a 0.1% acetic acid test solution, solutions having been prepared at concentrations to obtain a dosage of about 25 nmol of polypeptide per animal. Each test dose was immediately followed by intramuscular injection of 24 mg per Kg of body weight of tetracycline hydrochloride. A second injection of tetracycline was made 48 hours later.
Bone mineral apposition rates were determined by measurements of the lower metaphysis of the right femur, as described previously. Results obtained in the two sets of experiments are summarized in Tables Seven and Eight and graphically depicted in FIGS. 8 and 9.
Bone mineral apposition rates were again determined by measurement of the lower metaphysis of the right femur. Results obtained are summarized in Table Nineteen and graphically depicted in FIG. 12. […]
In a final set of experiments, a polypeptide having the ninth amino acid, cysteine, replaced by the amino acid tyrosine, SEQ ID NO:43, was synthesized and tested for bone stimulatory activity. Four rats (about 300 grams) were each administered with 100 nmoles of material (in 400 μl 20 mM acetic acid solution) by subcutaneous injection along with tetracycline (5 mg per animal in 400 μl water), as described above. A second dosage of tetracycline was administered 48 hours later and the animals sacrificed 24 hours after that. The lower metaphysis of the right femur was examined to determine the bone mineral apposition rate. For comparison, experiments were performed using a control in which no compound was present in the acetic acid solution.

[4] = Stability of dissolved polypeptides (capillary electrophoresis, RP-HPLC); type: physicochemical; details: 37° C.
Method: Each of the polypeptides having the sequences identified as SEQ ID NO: 7 and 24 was dissolved in 5 mM acetic acid to a final concentration of 1 mg/ml and incubated at 37° C. The peptide compositions were analyzed weekly by capillary electrophoresis on a P/ACE 6000 system (Beckman) using 50 mM sodium phosphate pH 2.5 as the running buffer on a 57 cm long×75 μm internal diameter capillary. The incubated peptide (20 μl) was diluted with 80 μl of running buffer, placed in a 500 μl vial prior to injection onto the P/ACE using pressure for 20 seconds. Following electrophoresis of the incubated peptide at 30 kV for 15 min a second run was carried out using freshly dissolved peptide as a control.
Each of the polypeptides was dissolved in 20 mM sodium phosphate pH 3.0, 20 mM ammonium acetate pH 4.0, 20 mM ammonium acetate pH 5.0, 20 mM MES pH 6.0, 20 mM sodium phosphate pH 7.0, 20 mM sodium phosphate pH 7.5, 20 mM sodium phosphate pH 8.0, 20 mM ammonium acetate pH 8.5 or 20 mM ammonium acetate pH 9.5 to a final concentration of 1 mg/ml. The peptide was incubated at 37° C. and the peptide assayed weekly by separation on P/ACE as described above. Some samples were separated by RP-HPLC and the isolated peaks subjected to mass spectroscopic analysis.
The protected polypeptide identified as SEQ ID NO:24 was dissolved in 20 mM or 250 mM ammonium acetate pH 4.5 to a final concentration of 1 mg/ml. In some experiments the buffer was supplemented with 20 mM EDTA. The peptide solution was then incubated at −70° C., −20° C., 4° C. or room temperature (22° C.). Samples were assayed weekly by electrophoresis on the P/ACE as described above and/or by RP-HPLC.
The stability of each of the polypeptides having the amino acid sequences identified as SEQ ID NOs: 25, 26 and 27 was tested as described above.

ovariectomized rats [5] = experiment: Bone mineral (calcium) content by DEXA in ovariectomized rats; type: in vivo, rat; details: 25 nmoles s.c. each day
Method: Ovariectomies were performed on rats as described above. A 0.1% acetic acid solution containing 25 nmoles of the polypeptide was administered subcutaneously to each rat each day for the duration of the experiment. […] Another group of rats was treated for eight weeks beginning eight weeks after ovariectomization. Rats were sacrificed at the end of the treatment period and dissected and post mortem assessment of bone mineral content was carried out. The lumbar spines L1-L4 were cleaned with a power nylon brush to remove the attached muscle. They were placed ventral side down under 3 cm of distilled water in a polypropylene container and scanned by a dual energy x-ray absorptometer (DEXA). Hologic 100, to determine the calcium content in grams. The right femur of each rat was also dissected out intact and cleared of the attached muscles with a power nylon brush. It was scanned dorsal side down under 3 cm of distilled water by DEXA. Four regions of the femur were scanned, as indicated in FIGS. 10 and 11: A, proximal end; B, diaphysis; C, distal end; and D, neck. The bone mineral (i.e., calcium) content in grams was estimated in the four zones of the femur based on absorption and using an internal standard of the machine.

CC[C@H](C)[C@H](NC(=O)CN)C(=O)NCC(=O)N[C@@H](CCCCN)C(=O)N[C@@H](CCCNC(=N)N)C(=O)N[C@H](C(=O)N[C@@H](CC(N)=O)C(=O)N[C@@H](CCC(=O)O)C(=O)N[C@@H](Cc1c[nH]cn1)C(=O)N[C@H](C(=O)N[C@@H](C)C(=O)N[C@@H](CC(=O)O)C(=O)N[C@@H](CS)C(=O)N[C@@H](CCCCN)C(=O)N[C@H](C(=O)N[C@@H](CCCCN)C(=O)N1CCC[C@H]1C(=O)N[C@@H](CC(N)=O)C(=O)N[C@H](C(=O)N[C@@H](CC(C)C)C(=O)N[C@@H](Cc1c[nH]cn1)C(=O)N[C@@H](CCCCN)C(=O)N[C@@H](CCCCN)C(=O)N[C@@H](C)C(=O)N[C@@H](C)C(=O)N[C@@H](CCC(=O)O)C(=O)N[C@H](C(=O)N[C@@H](CC(C)C)C(=O)N[C@@H](CCSC)C(=O)N[C@H](C(=O)N[C@@H](CC(C)C)C(=O)N[C@@H](CC(=O)O)C(=O)N[C@@H](CCC(N)=O)C(=O)N[C@@H](CC(N)=O)C(=O)N[C@@H](CCC(N)=O)C(=O)N1CCC[C@H]1C(=O)O)C(C)C)[C@@H](C)O)[C@@H](C)O)[C@@H](C)CC)[C@@H](C)O)[C@@H](C)O [SEQ ID NO:1] (H-GIGKRTNEHTADCKIKPNTLHKKAAETLMVLDQNQP-OH)
Full autopsy findings (ovariectomized rats [1]): No ill effects were observed

CC[C@H](C)[C@H](NC(=O)CNC(C)=O)C(=O)NCC(=O)N[C@@H](CCCCN)C(=O)N[C@@H](CCCNC(=N)N)C(=O)N[C@H](C(=O)N[C@@H](CC(N)=O)C(=O)N[C@@H](CCC(=O)O)C(=O)N[C@@H](Cc1c[nH]cn1)C(=O)N[C@H](C(=O)N[C@@H](C)C(=O)N[C@@H](CC(=O)O)C(=O)N[C@@H](CS)C(=O)N[C@@H](CCCCN)C(=O)N[C@H](C(=O)N[C@@H](CCCCN)C(=O)N1CCC[C@H]1C(=O)N[C@@H](CC(N)=O)C(=O)N[C@H](C(=O)N[C@@H](CC(C)C)C(=O)N[C@@H](Cc1c[nH]cn1)C(=O)N[C@@H](CCCCN)C(=O)N[C@@H](CCCCN)C(=O)N[C@@H](C)C(=O)N[C@@H](C)C(=O)N[C@@H](CCC(=O)O)C(=O)N[C@H](C(=O)N[C@@H](CC(C)C)C(=O)N[C@@H](CCSC)C(=O)N[C@H](C(=O)N[C@@H](CC(C)C)C(=O)N[C@@H](CC(=O)O)C(=O)N[C@@H](CCC(N)=O)C(=O)N[C@@H](CC(N)=O)C(=O)N[C@@H](CCC(N)=O)C(=O)N1CCC[C@H]1C(=O)O)C(C)C)[C@@H](C)O)[C@@H](C)O)[C@@H](C)CC)[C@@H](C)O)[C@@H](C)O [SEQ ID NO:2] (Ac-GIGKRTNEHTADCKIKPNTLHKKAAETLMVLDQNQP-OH)
Histological evaluation of selected tissues [2]: No evidence of toxic lesions | Autopsy findings (ovariectomized rats [3]): No obvious pathology was observed

GIGKRTNEHTADCKI [SEQ ID NO:7]
Mean Bone Apposition Rate (rats; about 125 nmoles of polypeptide per Kg of body weight (Table Twenty)): 2.18 μm/day | Bone mineral apposition rate, Mean (rats; male Sprague-Dawley rats 280-380 g, about 25 nmol per animal s.c., first set (Table Seven)): 1.41 μm per day | Stability when dissolved in dilute acids ([4]; 5 mM acetic acid, 1 mg/ml, analyzed weekly by capillary electrophoresis): degraded overtime | pH at which the peptide was most stable ([4]; 20 mM buffers pH 3.0 to 9.5, 1 mg/ml): 4.5 | Bone Mineral Content Measured in Distal End of Femur, Mean (ovariectomized rats [5]; Administered over 56 Days): 0.1347 g | Bone Mineral Content Measured in Femoral Diaphysis, Mean (ovariectomized rats [5]; Administered over 56 Days): 0.2091 g | Bone Mineral Content Measured in Femoral Neck, Mean (ovariectomized rats [5]; Administered over 56 Days): 0.0274 g | Bone Mineral Content Measured in Proximal End of Femur, Mean (ovariectomized rats [5]; Administered over 56 Days): 0.1328 g | Bone Mineral Content Measured in Spine L1-L4, Mean (ovariectomized rats [5]; Administered over 56 Days): 0.4606 g | Bone Mineral Content Measured in Distant End of Femur, Mean (ovariectomized rats [5]; Administered over 100 Days): 0.1424 g | Bone Mineral Content Measured in Femoral Diaphysis, Mean (ovariectomized rats [5]; Administered over 100 Days): 0.2347 g | Bone Mineral Content Measured in Femoral Neck, Mean (ovariectomized rats [5]; Administered over 100 Days): 0.0351 g | Bone Mineral Content Measured in Proximal End of Femur, Mean (ovariectomized rats [5]; Administered over 100 Days): 0.1411 g | Bone Mineral Content Measured in Spine L1-L4, Mean (ovariectomized rats [5]; Administered over 100 Days): 0.4758 g
